From PMC9404792, “Synthesis and Antioxidant Properties of HeteroBisNitrones Derived from Benzene Dicarbaldehydes” (Antioxidants, 2022)

Target: T1, soybean lipoxygenase (LOX) (Glycine max, UniProt P08170)
T1 construct: gene LOX1.1
T1 sequence (P08170 1-839): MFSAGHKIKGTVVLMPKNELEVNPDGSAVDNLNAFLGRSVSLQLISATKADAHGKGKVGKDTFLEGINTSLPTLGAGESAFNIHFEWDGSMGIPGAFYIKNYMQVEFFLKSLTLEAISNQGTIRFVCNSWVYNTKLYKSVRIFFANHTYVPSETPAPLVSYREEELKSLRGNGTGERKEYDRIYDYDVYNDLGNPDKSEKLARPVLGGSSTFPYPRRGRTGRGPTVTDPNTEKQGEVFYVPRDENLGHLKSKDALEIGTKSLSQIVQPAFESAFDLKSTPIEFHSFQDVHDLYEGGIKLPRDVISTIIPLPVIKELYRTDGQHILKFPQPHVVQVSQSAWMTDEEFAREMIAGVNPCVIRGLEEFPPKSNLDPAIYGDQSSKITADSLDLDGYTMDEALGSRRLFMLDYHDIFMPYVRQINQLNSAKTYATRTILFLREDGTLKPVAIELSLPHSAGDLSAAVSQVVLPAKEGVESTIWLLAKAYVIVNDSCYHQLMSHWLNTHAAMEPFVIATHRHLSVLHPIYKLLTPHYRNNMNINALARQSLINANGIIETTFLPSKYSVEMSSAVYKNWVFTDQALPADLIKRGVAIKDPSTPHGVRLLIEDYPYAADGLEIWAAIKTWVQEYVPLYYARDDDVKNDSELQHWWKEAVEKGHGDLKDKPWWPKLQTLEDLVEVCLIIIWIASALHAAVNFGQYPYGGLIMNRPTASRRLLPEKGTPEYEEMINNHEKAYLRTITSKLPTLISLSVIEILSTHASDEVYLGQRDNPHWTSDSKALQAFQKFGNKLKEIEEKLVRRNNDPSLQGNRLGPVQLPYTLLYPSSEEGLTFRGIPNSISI
Experiment: UV assay at […] nm of sodium linoleate conversion to 13-hydroperoxylinoleic acid
Type: biochemical
Conditions: read-out: LOX Inhibition (% or IC50 [μM])

C/[N+]([O-])=C/c1ccccc1/C=[N+](\[O-])Cc1ccccc1 [hBN8, (Z)-N-Benzyl-1-(2-((Z)-(methyloxidoazaneylidene)methyl)phenyl)methanimine oxide]
IC50: 82.5 µM

CC(C)(C)/[N+]([O-])=C/c1ccccc1/C=[N+](\[O-])Cc1ccccc1 [hBN9, (Z)-N-Benzyl-1-(2-((Z)-(tert-butyloxidoazaneylidene)methyl)phenyl)methanimine oxide]
IC50: 57.5 µM
